This is an account of results in the supplement of paper PMC10307832.

Test in all cases: relative viability (nuclei count vs DMSO), 5 days (fraction); higher = more cells survive
Compound in experiment [1]: Cc1ccc(Nc2nccc(N(C)c3ccc4c(C)n(C)nc4c3)n2)cc1S(N)(=O)=O [Pazopanib] + C[C@]1(O)C[C@@H](c2nc(-c3ccc4ccc(-c5ccccc5)nc4c3)c3c(N)nccn32)C1 [Linsitinib] (partner 1 µM)
In short, it runs like this: (§1)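 Medians of duplicate plates are given as relative viability. That measure is the nuclei count in treated wells divided by the count in vehicle wells. Counts were taken on 4× images of lung cancer cell lines in 1536-well plates, 5 days after pin-tool dosing the day after seeding with one drug alone or a fixed anchor-drug dose plus five library-drug doses (not always all listed) in √10 steps.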

Compound in experiment [2]: Cc1ccc(C(=O)Nc2ccc(CN3CCN(C)CC3)c(C(F)(F)F)c2)cc1C#Cc1cnc2cccnn12 [Ponatinib] + CCNC(=O)c1noc(-c2cc(C(C)C)c(O)cc2O)c1-c1ccc(CN2CCOCC2)cc1 [Luminespib] (partner 0.01 µM)
The procedure, abridged:
as §1

Compound in experiment [3]: Cc1ccc(C(=O)Nc2ccc(CN3CCN(C)CC3)c(C(F)(F)F)c2)cc1C#Cc1cnc2cccnn12 [Ponatinib] + O=C(c1cc(Cc2n[nH]c(=O)c3ccccc23)ccc1F)N1CCN(C(=O)C2CC2)CC1 [Olaparib] (partner 8 µM)
The procedure, abridged: as §1

Compound in experiment [4]: Cc1ccc(Nc2nccc(N(C)c3ccc4c(C)n(C)nc4c3)n2)cc1S(N)(=O)=O [Pazopanib] + Nc1ncn([C@H]2C[C@H](O)[C@@H](CO)O2)c(=O)n1 [Decitabine] (partner 2 µM)
The procedure, abridged: as §1

On to SW 1573, for which the relative viability in experiment [1] (first compound 0.01 µM) came out at 0.716; in experiment [1] (first compound 0.03162 µM) it was 0.798; in experiment [1] (first compound 0.1 µM), 0.817; in experiment [1] (first compound 0.3162 µM), 0.935; in experiment [1] (first compound 1 µM) it was 1.01; in experiment [2] (first compound 0.002 µM), 0.266. Also, the relative viability in experiment [2] (first compound 0.006325 µM) was determined as 0.321; in experiment [2] (first compound 0.06325 µM), 0.25; in experiment [2] (first compound 0.2 µM) it was 0.259; in experiment [3] (first compound 0.002 µM), 0.591; in experiment [3] (first compound 0.006325 µM), 0.519; in experiment [3] (first compound 0.06325 µM), 0.496. Moreover, the relative viability in experiment [3] (first compound 0.2 µM) was 0.408; in experiment [4] (first compound 0.01 µM), 0.465; in experiment [4] (first compound 0.03162 µM) it was 0.52; in experiment [4] (first compound 0.1 µM) it was 0.607; in experiment [4] (first compound 0.3162 µM) it was 0.528; in experiment [4] (first compound 1 µM) it was 0.7.
